PubChem BioAssay (NCI)
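All cell lines were grown in 96-well plates and treated with compound for 48 hours. TGI is the concentration that stops growth completely.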

Assays:
Experiment in all cases: DTP human tumour cell line panel, 48 h
[1] = test system: 786-0 renal
[2] = test system: IGROV1 ovarian
[3] = test system: SR leukemia
[4] = test system: TK-10 renal
[5] = test system: CAKI-1 renal
[6] = test system: SK-MEL-2 melanoma
[7] = test system: A549 NSCLC
[8] = test system: HT29 colon
[9] = test system: MDA-MB-435
[10] = test system: OVCAR-5 ovarian
[11] = test system: SW-620 colon
[12] = test system: SF-295 CNS
[13] = test system: NCI-H460 lung

## COc1cc(/C=C2\CCC(C)c3c2nc(N)c(C#N)c3-c2cc(OC)c(OC)c(OC)c2)cc(OC)c1OC (stereo not drawn)
[1]
  TGI: > 100 µM
[2]
  TGI: > 100 µM
[3]
  TGI: > 100 µM
[4]
  TGI: > 100 µM
[5]
  TGI: > 100 µM
[6]
  TGI: > 100 µM
[7]
  TGI: > 100 µM
[8]
  TGI: > 100 µM
[9]
  TGI: > 100 µM
[10]
  TGI: > 100 µM
[11]
  TGI: > 100 µM

## COc1ccc(OC)c2c(=O)cc(-c3ccccc3)[nH]c12
[1]
  TGI: > 100 µM
[12]
  TGI: > 100 µM
[2]
  TGI: > 100 µM
[3]
  TGI: > 100 µM
[4]
  TGI: > 100 µM
[6]
  TGI: > 100 µM
[7]
  TGI: > 100 µM
[8]
  TGI: > 100 µM
[9]
  TGI: > 100 µM
[10]
  TGI: > 100 µM
[11]
  TGI: > 100 µM
[13]
  TGI: > 100 µM

## NC(=O)CC1(O)C=CC(=O)C=C1
[1]
  TGI: > 100 µM
[12]
  TGI: > 100 µM
[2]
  TGI: > 100 µM
[3]
  TGI: > 100 µM
[4]
  TGI: > 100 µM
[5]
  TGI: > 100 µM
[6]
  TGI: > 100 µM
[7]
  TGI: > 100 µM
[8]
  TGI: > 100 µM
[9]
  TGI: > 100 µM
[10]
  TGI: > 100 µM
[11]
  TGI: > 100 µM
[13]
  TGI: > 100 µM

## [N-]=[N+]=Nc1cc(=O)n(-c2ccccc2)c(=O)n1-c1ccccc1
[1]
  TGI: > 100 µM
[12]
  TGI: > 100 µM
[2]
  TGI: > 100 µM
[3]
  TGI: > 100 µM
[4]
  TGI: > 100 µM
[5]
  TGI: > 100 µM
[6]
  TGI: > 100 µM
[7]
  TGI: > 100 µM
[8]
  TGI: > 100 µM
[9]
  TGI: > 100 µM
[10]
  TGI: > 100 µM
[11]
  TGI: > 100 µM

## c1ccc2c(c1)n1c(N3CCOCC3)[n+]3ccccc3c1c1c3cccc[n+]3c(N3CCOCC3)n21
[1]
  TGI: > 100 µM
[12]
  TGI: > 100 µM
[2]
  TGI: > 100 µM
[3]
  TGI: > 100 µM
[4]
  TGI: > 100 µM
[5]
  TGI: > 100 µM
[6]
  TGI: > 100 µM
[7]
  TGI: > 100 µM
[9]
  TGI: > 100 µM
[10]
  TGI: > 100 µM
[11]
  TGI: > 100 µM
[13]
  TGI: > 100 µM

## C=C1[C@H](OCC(C)C)[C@@H](OCC(C)C)[C@@H](O)C(C)(C)/C=C/[C@H](C)C(=O)[C@@]2(O)C[C@H](C)[C@H](O)[C@@H]2[C@H]1OCC(C)C
[1]
  TGI: > 7.5 µM
[12]
  TGI: > 7.5 µM
[3]
  TGI: > 7.5 µM
[4]
  TGI: > 7.5 µM
[5]
  TGI: > 7.5 µM
[6]
  TGI: > 7.5 µM
[9]
  TGI: > 7.5 µM
[10]
  TGI: > 7.5 µM
[11]
  TGI: > 7.5 µM
[13]
  TGI: > 7.5 µM

## CN=C1Nc2ccccc2C(=S)N2CSC[C@@H]12
[1]
  TGI: > 100 µM
[12]
  TGI: > 100 µM
[3]
  TGI: > 100 µM
[4]
  TGI: > 100 µM
[5]
  TGI: > 100 µM
[6]
  TGI: > 100 µM
[7]
  TGI: > 100 µM
[8]
  TGI: > 100 µM
[9]
  TGI: > 100 µM
[10]
  TGI: > 100 µM
[11]
  TGI: > 100 µM
[13]
  TGI: > 100 µM

## CC(C)CC(NC(=O)OCc1ccccc1)C(=O)NCCCCC(N)C(=O)NC(CCCCNC(=O)C(CC(C)C)NC(=O)OCc1ccccc1)C(=O)NC(CCCCNC(=O)C(CC(C)C)NC(=O)OCc1ccccc1)C(=O)NC(CCCCNC(=O)C(CC(C)C)NC(=O)OCc1ccccc1)C(=O)NC(CCCCNC(=O)C(CC(C)C)NC(=O)OCc1ccccc1)C(=O)NC(CCCCNC(=O)C(CC(C)C)NC(=O)OCc1ccccc1)C(=O)O (stereo not drawn)
[1]
  TGI: > 100 µM
[2]
  TGI: > 100 µM
[3]
  TGI: > 100 µM
[4]
  TGI: > 100 µM
[6]
  TGI: > 100 µM
[7]
  TGI: > 100 µM
[8]
  TGI: > 100 µM
[9]
  TGI: > 100 µM
[10]
  TGI: > 100 µM
[11]
  TGI: > 100 µM
[13]
  TGI: > 100 µM

## Cc1nn(-c2ccccc2)c2nc3c(c(C)nn3-c3ccccc3)c(-c3ccccc3Br)c12
[1]
  TGI: > 100 µM
[12]
  TGI: > 100 µM
[2]
  TGI: > 100 µM
[3]
  TGI: > 100 µM
[4]
  TGI: > 100 µM
[5]
  TGI: > 100 µM
[7]
  TGI: > 100 µM
[8]
  TGI: > 100 µM
[9]
  TGI: > 100 µM
[10]
  TGI: > 100 µM
[11]
  TGI: > 100 µM
[13]
  TGI: > 100 µM

## CC1=C(C#N)C(=O)N(/N=C/c2ccc(Cl)cc2)C(=O)/C1=c1\o/c(=C2/C(=O)N(/N=C/c3ccc(Cl)cc3)C(=O)C(C#N)=C2C)c2nccnc12
[1]
  TGI: > 100 µM
[12]
  TGI: > 100 µM
[2]
  TGI: > 100 µM
[3]
  TGI: > 100 µM
[5]
  TGI: > 100 µM
[6]
  TGI: > 100 µM
[7]
  TGI: > 100 µM
[8]
  TGI: > 100 µM
[9]
  TGI: > 100 µM
[10]
  TGI: > 100 µM
[11]
  TGI: > 100 µM
[13]
  TGI: > 100 µM

## COC(=O)CC1CN(C(=O)OCc2ccccc2)C(C)(C)O1 (stereo not drawn)
[1]
  TGI: > 100 µM
[12]
  TGI: > 100 µM
[2]
  TGI: > 100 µM
[3]
  TGI: > 100 µM
[4]
  TGI: > 100 µM
[5]
  TGI: > 100 µM
[6]
  TGI: > 100 µM
[7]
  TGI: > 100 µM
[9]
  TGI: > 100 µM
[10]
  TGI: > 100 µM
[11]
  TGI: > 100 µM
[13]
  TGI: > 100 µM

## O=c1c2cc([N+](=O)[O-])cnc2sn1-c1ccc(Oc2ccccc2)cc1
[1]
  TGI: > 100 µM
[12]
  TGI: > 100 µM
[2]
  TGI: > 100 µM
[3]
  TGI: > 100 µM
[4]
  TGI: > 100 µM
[6]
  TGI: > 100 µM
[7]
  TGI: > 100 µM
[8]
  TGI: > 100 µM
[9]
  TGI: > 100 µM
[10]
  TGI: > 100 µM
[11]
  TGI: > 100 µM
[13]
  TGI: > 100 µM

## CC1=C(C(=O)OC23CC4CC(CC(C4)C2)C3)C(c2ccccc2OC(F)F)C(C(=O)OC23CC4CC(CC(C4)C2)C3)=C(C)N1 (stereo not drawn)
[1]
  TGI: > 100 µM
[12]
  TGI: > 100 µM
[2]
  TGI: > 100 µM
[3]
  TGI: > 100 µM
[5]
  TGI: > 100 µM
[6]
  TGI: > 100 µM
[7]
  TGI: > 100 µM
[8]
  TGI: > 100 µM
[9]
  TGI: > 100 µM
[10]
  TGI: > 100 µM
[11]
  TGI: > 100 µM
[13]
  TGI: > 100 µM
